Values quoted from earlier work as cited in PMC9516332 (Frontiers in Oncology, 2022).
Where two headings read alike, the source gives them in different places.

Tests used:
Details in all cases: cited from earlier work
[1] = biological target: panel of 255 wild-type kinases (Homo sapiens, UniProt Q02763)
[2] = biological target: T1, panel of 255 wild-type kinases (Homo sapiens, UniProt O60285)
T1 sequence (O60285 1-661): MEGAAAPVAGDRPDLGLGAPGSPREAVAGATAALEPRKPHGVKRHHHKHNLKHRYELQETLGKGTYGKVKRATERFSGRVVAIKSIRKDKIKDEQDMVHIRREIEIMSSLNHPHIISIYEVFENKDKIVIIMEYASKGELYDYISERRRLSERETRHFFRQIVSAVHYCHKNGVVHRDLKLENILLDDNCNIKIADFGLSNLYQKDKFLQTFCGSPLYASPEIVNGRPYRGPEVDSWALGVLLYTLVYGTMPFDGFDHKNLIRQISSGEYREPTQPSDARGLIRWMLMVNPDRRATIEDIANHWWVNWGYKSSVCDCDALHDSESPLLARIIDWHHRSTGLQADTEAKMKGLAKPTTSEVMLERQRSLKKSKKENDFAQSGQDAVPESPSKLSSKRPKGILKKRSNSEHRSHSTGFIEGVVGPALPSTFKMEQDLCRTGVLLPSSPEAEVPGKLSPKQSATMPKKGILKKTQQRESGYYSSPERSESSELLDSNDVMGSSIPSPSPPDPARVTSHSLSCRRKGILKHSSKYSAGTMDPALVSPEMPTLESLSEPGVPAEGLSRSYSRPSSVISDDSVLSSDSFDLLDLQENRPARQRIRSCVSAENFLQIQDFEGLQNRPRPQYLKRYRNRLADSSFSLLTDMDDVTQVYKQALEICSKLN

[3] = biological target: panel of 255 wild-type kinases (Homo sapiens, UniProt Q15303)
[4] = biological target: T2, panel of 255 wild-type kinases (Homo sapiens, UniProt Q9UL54)
T2 sequence (Q9UL54 1-1235): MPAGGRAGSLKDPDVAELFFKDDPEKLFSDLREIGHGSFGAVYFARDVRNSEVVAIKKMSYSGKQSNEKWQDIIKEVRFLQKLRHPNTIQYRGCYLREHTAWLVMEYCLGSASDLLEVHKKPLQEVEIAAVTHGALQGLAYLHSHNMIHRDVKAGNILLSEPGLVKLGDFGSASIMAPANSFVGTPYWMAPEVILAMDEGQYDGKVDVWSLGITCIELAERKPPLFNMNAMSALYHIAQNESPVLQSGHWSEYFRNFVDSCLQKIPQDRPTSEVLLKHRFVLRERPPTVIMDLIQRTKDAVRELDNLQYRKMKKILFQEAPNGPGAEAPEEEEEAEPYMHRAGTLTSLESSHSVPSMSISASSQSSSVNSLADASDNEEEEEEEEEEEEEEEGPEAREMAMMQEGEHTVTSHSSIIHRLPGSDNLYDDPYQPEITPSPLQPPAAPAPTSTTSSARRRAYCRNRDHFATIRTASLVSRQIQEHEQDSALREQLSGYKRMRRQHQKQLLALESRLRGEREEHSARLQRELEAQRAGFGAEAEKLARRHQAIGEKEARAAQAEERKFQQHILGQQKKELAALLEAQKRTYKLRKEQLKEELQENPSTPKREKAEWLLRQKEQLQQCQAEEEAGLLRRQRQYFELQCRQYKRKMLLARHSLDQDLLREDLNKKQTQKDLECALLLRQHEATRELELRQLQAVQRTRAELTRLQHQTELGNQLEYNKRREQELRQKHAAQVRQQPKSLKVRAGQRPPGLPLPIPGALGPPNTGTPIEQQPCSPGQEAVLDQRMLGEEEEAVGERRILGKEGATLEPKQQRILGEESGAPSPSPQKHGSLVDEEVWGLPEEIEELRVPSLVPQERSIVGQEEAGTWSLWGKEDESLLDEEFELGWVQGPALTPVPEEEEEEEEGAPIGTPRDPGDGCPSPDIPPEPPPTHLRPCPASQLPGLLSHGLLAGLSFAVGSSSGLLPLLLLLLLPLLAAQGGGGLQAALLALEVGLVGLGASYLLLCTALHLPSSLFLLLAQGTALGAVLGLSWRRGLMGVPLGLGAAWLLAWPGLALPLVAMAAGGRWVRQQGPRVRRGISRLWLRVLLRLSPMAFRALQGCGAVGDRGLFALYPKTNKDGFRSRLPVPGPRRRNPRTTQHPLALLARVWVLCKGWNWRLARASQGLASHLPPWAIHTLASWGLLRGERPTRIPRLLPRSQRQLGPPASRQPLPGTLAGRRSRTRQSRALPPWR

[5] = biological target: panel of 255 wild-type kinases (Homo sapiens, UniProt Q9BYP7)
[6] = kinase TIE2, 1 µmol/L single concentration, ref DOI: 10.1158/1535-7163.MCT-18-0877
[7] = NuaK1, 1 µmol/L single concentration, ref DOI: 10.1158/1535-7163.MCT-18-0877
[8] = kinase HER4, 1 µmol/L single concentration, ref DOI: 10.1158/1535-7163.MCT-18-0877
[9] = kinase TAOK2, 1 µmol/L single concentration, ref DOI: 10.1158/1535-7163.MCT-18-0877
[10] = kinase WNK3, 1 µmol/L single concentration, ref DOI: 10.1158/1535-7163.MCT-18-0877
[11] = kinase TIE2, 1 µmol/L single concentration, ref DOI: 10.1371/journal.pone.0092146
[12] = NuaK1, 1 µmol/L single concentration, ref DOI: 10.1371/journal.pone.0092146
[13] = kinase HER4, 1 µmol/L single concentration, ref DOI: 10.1371/journal.pone.0092146
[14] = kinase TAOK2, 1 µmol/L single concentration, ref DOI: 10.1371/journal.pone.0092146
[15] = kinase WNK3, 1 µmol/L single concentration, ref DOI: 10.1371/journal.pone.0092146

| Structure (SMILES) | %-inhibition at 1 µmol/L, TIE2 [1, 6] | %-inhibition, NuaK1 [2, 7] | %-inhibition at 1 µmol/L, HER4 [3, 8] | %-inhibition at 1 µmol/L, TAOK2 [4, 9] | %-inhibition at 1 µmol/L, WNK3 [5, 10] | %-inhibition at 1 µmol/L, TIE2 [1, 11] | %-inhibition, NuaK1 [2, 12] | %-inhibition at 1 µmol/L, HER4 [3, 13] | %-inhibition at 1 µmol/L, TAOK2 [4, 14] | %-inhibition at 1 µmol/L, WNK3 [5, 15] | also measured |
| --- | --- | --- | --- | --- | --- | --- | --- | --- | --- | --- | --- |
| CC#CC(=O)N1CCC[C@H]1c1nc(-c2ccc(C(=O)Nc3ccccn3)cc2)c2c(N)nccn12 [acalabrutinib] | -5.36% | -3.51% | 78% | 5.31% | -0.259% |  |  |  |  |  |  |
| CCc1cc2c(cc1N1CCC(N3CCOCC3)CC1)C(C)(C)c1[nH]c3cc(C#N)ccc3c1C2=O [alectinib] | 2% | -19% | 34% | 5.52% | 0.437% |  |  |  |  |  |  |
| COc1cc(N2CCC(N3CCN(C)CC3)CC2)ccc1Nc1ncc(Cl)c(Nc2ccccc2P(C)(C)=O)n1 [brigatinib] |  |  |  |  |  |  |  |  |  |  | %-inhibition at 1 µmol/L, TIE2 [1]: 75%; %-inhibition, NuaK1 [2]: 90%; %-inhibition at 1 µmol/L, HER4 [3]: 99%; %-inhibition at 1 µmol/L, TAOK2 [4]: 16%; %-inhibition at 1 µmol/L, WNK3 [5]: 1% |
| Cc1cc(Nc2ncc(Cl)c(Nc3ccccc3S(=O)(=O)C(C)C)n2)c(OC(C)C)cc1C1CCNCC1 [ceritinib] | -13% | 17% | 51% | 7% | 0.598% |  |  |  |  |  |  |
| O=C(c1ccc(F)c(F)c1Nc1ccc(I)cc1F)N1CC(O)([C@@H]2CCCCN2)C1 [cobimetinib] | 19% | 2.32% | 11% | 5.42% | 1.84% |  |  |  |  |  |  |
| C[C@@H](Oc1cc(-c2cnn(C3CCNCC3)c2)cnc1N)c1c(Cl)ccc(F)c1Cl [crizotinib] |  |  |  |  |  | 83% | 99% | -18% | 33% | -8% |  |
| CC(C)(C)c1nc(-c2cccc(NS(=O)(=O)c3c(F)cccc3F)c2F)c(-c2ccnc(N)n2)s1 [dabrafenib] |  |  |  |  |  | 81% | 7% | 23% | 34% | 1.34% |  |
| C=CC(=O)N1CCC[C@@H](n2nc(-c3ccc(Oc4ccccc4)cc3)c3c(N)ncnc32)C1 [ibrutinib] | 29% | 7% | 99% | 5% | 7% |  |  |  |  |  |  |
| CO[C@@H]1[C@H](N(C)C(=O)c2ccccc2)C[C@H]2O[C@]1(C)n1c3ccccc3c3c4c(c5c6ccccc6n2c5c31)C(=O)NC4 [midostaurin] | 30% | 101% | 77% | 9% | 5.27% |  |  |  |  |  |  |
| C=CC(=O)Nc1cc(Nc2nccc(-c3cn(C)c4ccccc34)n2)c(OC)cc1N(C)CCN(C)C [osimertinib] | 3.73% | 48% | 96% | 7% | 1.5% |  |  |  |  |  |  |
| CC(=O)Nc1cccc(-n2c(=O)n(C3CC3)c(=O)c3c(Nc4ccc(I)cc4F)n(C)c(=O)c(C)c32)c1 [trametinib] |  |  |  |  |  | -7% | -0.634% | 2.34% | -2.59% | 1% |  |
| CCCS(=O)(=O)Nc1ccc(F)c(C(=O)c2c[nH]c3ncc(-c4ccc(Cl)cc4)cc23)c1F [vemurafenib] |  |  |  |  |  | -2.42% | 4% | 11% | 5.35% | 53% |  |
